One block for each compound: values may come before it.
Tests used:
Format in all cases: cell-based
[1] = target: T1, GLUT10 (Homo sapiens, UniProt O95528); assay: [3H]-2-deoxyglucose uptake in GLUT-expressing HEK293 cells
T1 construct: gene SLC2A10
T1 sequence (O95528 1-541): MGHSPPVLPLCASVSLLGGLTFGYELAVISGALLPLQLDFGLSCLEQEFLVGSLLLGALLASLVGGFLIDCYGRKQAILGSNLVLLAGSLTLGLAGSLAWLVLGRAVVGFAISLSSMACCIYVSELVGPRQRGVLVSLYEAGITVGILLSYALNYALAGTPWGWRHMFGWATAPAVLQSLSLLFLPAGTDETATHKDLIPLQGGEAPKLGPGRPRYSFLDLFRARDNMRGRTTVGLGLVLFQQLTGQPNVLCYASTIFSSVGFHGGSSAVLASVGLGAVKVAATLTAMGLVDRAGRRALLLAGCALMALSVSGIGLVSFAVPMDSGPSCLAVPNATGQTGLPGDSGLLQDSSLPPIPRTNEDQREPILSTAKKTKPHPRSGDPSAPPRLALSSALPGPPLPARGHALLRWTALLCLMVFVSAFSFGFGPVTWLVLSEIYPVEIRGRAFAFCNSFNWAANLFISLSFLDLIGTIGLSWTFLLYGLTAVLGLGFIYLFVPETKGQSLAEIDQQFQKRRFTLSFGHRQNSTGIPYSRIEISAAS

[2] = target: T2, GLUT4 (Homo sapiens, UniProt P14672); assay: as above
T2 construct: gene SLC2A4
T2 sequence (P14672 1-509): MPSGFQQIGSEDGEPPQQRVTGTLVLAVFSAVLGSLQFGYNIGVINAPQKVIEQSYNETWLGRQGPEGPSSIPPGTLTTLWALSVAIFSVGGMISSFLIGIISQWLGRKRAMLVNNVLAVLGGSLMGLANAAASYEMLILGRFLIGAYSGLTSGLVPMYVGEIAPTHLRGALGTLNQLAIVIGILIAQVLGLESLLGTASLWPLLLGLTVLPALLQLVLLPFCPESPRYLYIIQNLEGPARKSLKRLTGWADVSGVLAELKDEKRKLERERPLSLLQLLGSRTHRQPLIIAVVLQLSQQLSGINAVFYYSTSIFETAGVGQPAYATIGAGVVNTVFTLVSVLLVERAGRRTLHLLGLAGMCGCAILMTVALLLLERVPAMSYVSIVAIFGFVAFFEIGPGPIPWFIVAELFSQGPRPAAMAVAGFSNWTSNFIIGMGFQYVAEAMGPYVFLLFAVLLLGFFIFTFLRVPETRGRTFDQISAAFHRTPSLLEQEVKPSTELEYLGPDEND

[3] = target: T3, GLUT6 (Homo sapiens, UniProt Q9UGQ3); assay: as above
T3 construct: gene SLC2A6
T3 sequence (Q9UGQ3 1-507): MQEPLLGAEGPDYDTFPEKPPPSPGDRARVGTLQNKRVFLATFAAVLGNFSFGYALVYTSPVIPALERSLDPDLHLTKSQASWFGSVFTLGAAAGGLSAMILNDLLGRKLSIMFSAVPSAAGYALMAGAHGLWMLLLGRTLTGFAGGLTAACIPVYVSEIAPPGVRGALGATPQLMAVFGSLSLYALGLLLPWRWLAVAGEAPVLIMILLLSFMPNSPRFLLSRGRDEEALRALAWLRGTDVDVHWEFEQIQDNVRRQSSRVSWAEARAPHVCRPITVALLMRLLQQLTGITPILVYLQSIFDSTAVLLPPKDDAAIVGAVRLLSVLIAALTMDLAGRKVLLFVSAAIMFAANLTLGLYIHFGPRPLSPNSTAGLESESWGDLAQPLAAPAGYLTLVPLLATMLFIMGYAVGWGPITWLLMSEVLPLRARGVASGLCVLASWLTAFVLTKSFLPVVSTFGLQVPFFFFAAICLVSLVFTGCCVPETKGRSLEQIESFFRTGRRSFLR

[4] = target: T4, GLUT2 (Homo sapiens, UniProt P11168); assay: as above; settings: 50 µM 2-deoxyglucose, 4 min; pH 7.3; labelled compound
T4 construct: gene SLC2A2
T4 sequence (P11168 1-524): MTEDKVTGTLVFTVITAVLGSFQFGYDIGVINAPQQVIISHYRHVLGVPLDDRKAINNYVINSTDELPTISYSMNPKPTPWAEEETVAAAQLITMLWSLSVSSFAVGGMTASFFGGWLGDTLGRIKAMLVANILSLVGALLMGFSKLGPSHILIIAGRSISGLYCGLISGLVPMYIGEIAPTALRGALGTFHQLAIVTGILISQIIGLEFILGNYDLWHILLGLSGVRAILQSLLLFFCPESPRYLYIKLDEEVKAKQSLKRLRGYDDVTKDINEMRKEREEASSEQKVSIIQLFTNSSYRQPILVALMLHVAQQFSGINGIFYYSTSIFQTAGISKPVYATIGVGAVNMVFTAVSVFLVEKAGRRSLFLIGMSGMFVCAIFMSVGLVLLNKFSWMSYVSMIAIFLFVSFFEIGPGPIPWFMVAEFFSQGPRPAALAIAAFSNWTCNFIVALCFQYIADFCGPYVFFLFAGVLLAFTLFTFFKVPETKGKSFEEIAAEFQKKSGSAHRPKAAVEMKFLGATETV

[5] = target: T5, GLUT5 (Homo sapiens, UniProt P22732); assay: [3H]-D-fructose uptake in GLUT-expressing HEK293 cells; settings: 4 µM fructose, 2 min; pH 7.3; labelled compound
T5 construct: gene SLC2A5
T5 sequence (P22732 1-501): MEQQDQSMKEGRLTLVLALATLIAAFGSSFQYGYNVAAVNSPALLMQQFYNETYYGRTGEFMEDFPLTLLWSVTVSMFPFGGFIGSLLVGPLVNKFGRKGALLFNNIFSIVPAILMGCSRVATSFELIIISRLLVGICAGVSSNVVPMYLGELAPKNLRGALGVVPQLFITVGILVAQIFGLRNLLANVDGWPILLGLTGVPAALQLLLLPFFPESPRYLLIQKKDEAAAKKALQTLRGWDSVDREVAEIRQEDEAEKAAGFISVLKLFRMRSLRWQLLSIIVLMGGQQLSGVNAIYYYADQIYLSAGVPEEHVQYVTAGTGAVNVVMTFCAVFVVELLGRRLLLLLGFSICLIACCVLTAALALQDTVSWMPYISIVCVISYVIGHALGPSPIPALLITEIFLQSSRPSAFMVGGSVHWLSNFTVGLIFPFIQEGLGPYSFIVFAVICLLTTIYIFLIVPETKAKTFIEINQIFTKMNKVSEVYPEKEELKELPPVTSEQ

IC50 [1]: 1700 nM
IC50 [2]: 5400 nM
IC50 [3]: 2200 nM
SMILES: Cc1c(NC(=O)c2cc(C(N)=O)nc3cc(F)ccc23)c(C(F)(F)F)nn1Cc1ccc(C#N)cc1 [BAY-876]

SMILES: OC[C@H]1OC(O)C[C@@H](O)[C@@H]1O (some centres unmarked) [[^3H]-2-deoxyglucose]
[3H]-2-deoxyglucose uptake in GLUT-expressing HEK293 cells [4]: HEK293 cells that stably express human GLUT transporters were incubated

SMILES: OCC1(O)OC[C@@H](O)[C@@H](O)[C@@H]1O (stereo partly drawn) [[^3H]-D-fructose]
[3H]-D-fructose uptake in GLUT-expressing HEK293 cells [5]: Fructose transport through GLUT5 was not impaired by BAY-876
